According to PubChem BioAssay (NCI):
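Compound exposure: 48 hours, 5 concentrations, 96-well plates. TGI denotes the concentration required for complete inhibition of growth.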

How the values were obtained:
Assay in all cases: DTP human tumour cell line panel, 48 h
[1] = tested on: 786-0 renal
[2] = tested on: A498 renal
[3] = tested on: A549 NSCLC
[4] = tested on: ACHN renal
[5] = tested on: CAKI-1 renal
[6] = tested on: CCRF-CEM leukemia
[7] = tested on: COLO 205 colon
[8] = tested on: DLD-1 colon
[9] = tested on: DMS 114 small cell lung
[10] = tested on: DMS 273 small cell lung
[11] = tested on: EKVX NSCLC
[12] = tested on: HCC-2998 colon
[13] = tested on: HCT-116 colon
[14] = tested on: HCT-15 colon
[15] = tested on: HL-60(TB) leukemia
[16] = tested on: HOP-18 NSCLC
[17] = tested on: HOP-62 NSCLC
[18] = tested on: HOP-92 NSCLC
[19] = tested on: HT29 colon
[20] = tested on: IGROV1 ovarian
[21] = tested on: K-562 leukemia
[22] = tested on: KM12 colon
[23] = tested on: LOX IMVI melanoma
[24] = tested on: M14 melanoma
[25] = tested on: MALME-3M melanoma
[26] = tested on: MOLT-4 leukemia
[27] = tested on: NCI-H226 lung
[28] = tested on: NCI-H23 lung
[29] = tested on: NCI-H460 lung
[30] = tested on: OVCAR-3 ovarian
[31] = tested on: OVCAR-4 ovarian
[32] = tested on: OVCAR-5 ovarian
[33] = tested on: OVCAR-8 ovarian
[34] = tested on: RPMI-8226 leukemia
[35] = tested on: RXF 393 renal
[36] = tested on: SF-268 CNS
[37] = tested on: SF-295 CNS
[38] = tested on: SF-539 CNS
[39] = tested on: SK-MEL-2 melanoma
[40] = tested on: SK-MEL-28 melanoma
[41] = tested on: SK-MEL-5 melanoma
[42] = tested on: SK-OV-3 ovarian
[43] = tested on: SN12C renal
[44] = tested on: SNB-19 CNS
[45] = tested on: SNB-75 CNS
[46] = tested on: SNB-78 CNS
[47] = tested on: SW-620 colon
[48] = tested on: TK-10 renal
[49] = tested on: U251 CNS
[50] = tested on: UACC-257 melanoma
[51] = tested on: UACC-62 melanoma
[52] = tested on: UO-31 renal
[53] = tested on: KM20L2 colon
[54] = tested on: LXFL 529 NSCLC
[55] = tested on: M19-MEL melanoma
[56] = tested on: NCI-H522 lung
[57] = tested on: SR leukemia
[58] = tested on: XF 498 CNS

For O=C(C#Cc1c[nH]c(=O)[nH]c1=O)c1ccccc1Cl, the TGI [1] was 32 µM, the TGI [2] was 36.3 µM and the TGI [3] was greater than 100 µM. The TGI [4] was 33.1 µM, the TGI [5] was 31.3 µM and the TGI [6] was 59.8 µM. It also gave a TGI [7] of 29.8 µM, a TGI [8] of 29.3 µM and a TGI [9] of 46.9 µM. The TGI [10] was 38.8 µM, the TGI [11] was 36.5 µM and the TGI [12] was 30.8 µM. For the same compound, the TGI [13] was 30.9 µM, the TGI [14] was 28.7 µM and the TGI [15] was 48.1 µM. It also gave a TGI [16] of 34.4 µM, a TGI [17] greater than 100 µM and a TGI [18] of 35.4 µM. For the same compound, the TGI [19] was 96.9 µM, the TGI [20] was 35 µM and the TGI [21] was greater than 100 µM. It also gave a TGI [22] of 88.4 µM, a TGI [23] of 26.7 µM and a TGI [24] of 28.8 µM. For the same compound, the TGI [25] was 32.1 µM, the TGI [26] was 44.3 µM and the TGI [27] was 75.7 µM. It also gave a TGI [28] of 32.3 µM, a TGI [29] of 67.7 µM and a TGI [30] of 27.3 µM. For the same compound, the TGI [31] was 31.1 µM, the TGI [32] was 34 µM and the TGI [33] was 29.3 µM. The TGI [34] was 71.7 µM, the TGI [35] was 14.7 µM and the TGI [36] was 41.4 µM. For the same compound, the TGI [37] was greater than 100 µM, the TGI [38] was 30 µM and the TGI [39] was 29.9 µM. For the same compound, the TGI [40] was 32 µM, the TGI [41] was 28.8 µM and the TGI [42] was greater than 100 µM. For the same compound, the TGI [43] was 27.5 µM, the TGI [44] was greater than 100 µM and the TGI [45] was 39.6 µM. It also gave a TGI [46] of 60.7 µM, a TGI [47] of 27.2 µM and a TGI [48] of 36.1 µM. It also gave a TGI [49] of 35.1 µM, a TGI [50] of 27.9 µM and a TGI [51] of 38.6 µM. The TGI [52] was 38.5 µM.
Work on O=c1[nH]c2ccccc2cc1C(Cl)=C(Cl)Cl yielded a TGI [1] greater than 100 µM, a TGI [2] greater than 100 µM and a TGI [3] greater than 100 µM. It also gave a TGI [4] greater than 100 µM, a TGI [5] greater than 100 µM and a TGI [6] greater than 100 µM. The TGI [7] was greater than 100 µM, the TGI [8] was greater than 100 µM and the TGI [9] was greater than 100 µM. The TGI [10] was greater than 100 µM, the TGI [11] was greater than 100 µM and the TGI [12] was greater than 100 µM. The TGI [13] was greater than 100 µM, the TGI [15] was greater than 100 µM and the TGI [16] was greater than 100 µM. For the same compound, the TGI [17] was greater than 100 µM, the TGI [18] was greater than 100 µM and the TGI [19] was greater than 100 µM. For the same compound, the TGI [20] was greater than 100 µM, the TGI [21] was greater than 100 µM and the TGI [22] was greater than 100 µM. The TGI [53] was greater than 100 µM, the TGI [23] was greater than 100 µM and the TGI [54] was greater than 100 µM. For the same compound, the TGI [24] was greater than 100 µM, the TGI [55] was greater than 100 µM and the TGI [25] was greater than 100 µM. The TGI [26] was greater than 100 µM, the TGI [27] was greater than 100 µM and the TGI [28] was greater than 100 µM. The TGI [29] was greater than 100 µM, the TGI [56] was greater than 100 µM and the TGI [30] was greater than 100 µM. The TGI [31] was greater than 100 µM, the TGI [32] was greater than 100 µM and the TGI [33] was greater than 100 µM. It also gave a TGI [34] greater than 100 µM, a TGI [35] greater than 100 µM and a TGI [36] greater than 100 µM. For the same compound, the TGI [37] was greater than 100 µM, the TGI [38] was greater than 100 µM and the TGI [39] was greater than 100 µM. For the same compound, the TGI [40] was greater than 100 µM, the TGI [42] was greater than 100 µM and the TGI [43] was greater than 100 µM. The TGI [44] was greater than 100 µM, the TGI [45] was greater than 100 µM and the TGI [46] was greater than 100 µM. It also gave a TGI [57] greater than 100 µM, a TGI [47] greater than 100 µM and a TGI [48] greater than 100 µM. For the same compound, the TGI [49] was greater than 100 µM, the TGI [50] was greater than 100 µM and the TGI [51] was greater than 100 µM. For the same compound, the TGI [52] was greater than 100 µM and the TGI [58] was greater than 100 µM.
In the case of Cc1ccc(-c2c(N)nc(NC#N)nc2CCC(=O)Nc2ccccc2[N+](=O)[O-])cc1, the TGI [1] is reported as greater than 100 µM, the TGI [2] is reported as greater than 100 µM and the TGI [3] is reported as greater than 100 µM. It also gave a TGI [4] greater than 100 µM, a TGI [5] greater than 100 µM and a TGI [6] greater than 100 µM. The TGI [7] was greater than 100 µM, the TGI [8] was greater than 100 µM and the TGI [9] was greater than 100 µM. It also gave a TGI [10] greater than 100 µM, a TGI [11] greater than 100 µM and a TGI [12] greater than 100 µM. It also gave a TGI [13] greater than 100 µM, a TGI [14] greater than 100 µM and a TGI [15] greater than 100 µM. It also gave a TGI [16] greater than 100 µM, a TGI [17] greater than 100 µM and a TGI [18] greater than 100 µM. For the same compound, the TGI [19] was greater than 100 µM, the TGI [20] was greater than 100 µM and the TGI [21] was greater than 100 µM. For the same compound, the TGI [22] was greater than 100 µM, the TGI [53] was greater than 100 µM and the TGI [23] was greater than 100 µM. It also gave a TGI [54] greater than 100 µM, a TGI [24] greater than 100 µM and a TGI [55] greater than 100 µM. For the same compound, the TGI [25] was greater than 100 µM, the TGI [26] was greater than 100 µM and the TGI [27] was greater than 100 µM. It also gave a TGI [28] greater than 100 µM, a TGI [29] greater than 100 µM and a TGI [56] greater than 100 µM. It also gave a TGI [30] greater than 100 µM, a TGI [31] greater than 100 µM and a TGI [32] greater than 100 µM. For the same compound, the TGI [34] was greater than 100 µM, the TGI [35] was greater than 100 µM and the TGI [36] was greater than 100 µM. It also gave a TGI [37] greater than 100 µM, a TGI [38] greater than 100 µM and a TGI [39] greater than 100 µM. For the same compound, the TGI [40] was greater than 100 µM, the TGI [41] was greater than 100 µM and the TGI [42] was greater than 100 µM. The TGI [43] was greater than 100 µM, the TGI [44] was greater than 100 µM and the TGI [45] was greater than 100 µM. It also gave a TGI [46] greater than 100 µM, a TGI [57] greater than 100 µM and a TGI [47] greater than 100 µM. It also gave a TGI [48] greater than 100 µM, a TGI [49] greater than 100 µM and a TGI [50] greater than 100 µM. For the same compound, the TGI [51] was greater than 100 µM and the TGI [52] was greater than 100 µM.
Compound O=C(/C=C/c1ccccc1)/C=C/c1ccccc1O has a TGI [1] of 32.4 µM, a TGI [2] of 70.9 µM and a TGI [3] of 54.3 µM. For the same compound, the TGI [4] was 42.1 µM, the TGI [5] was 64.6 µM and the TGI [6] was 48.1 µM. The TGI [7] was 31.1 µM, the TGI [8] was 36.9 µM and the TGI [9] was 35.3 µM. The TGI [11] was 39.8 µM, the TGI [12] was 26.8 µM and the TGI [13] was 28.7 µM. The TGI [14] was 32.8 µM, the TGI [15] was 35.8 µM and the TGI [16] was 1.76 µM. For the same compound, the TGI [17] was greater than 100 µM, the TGI [18] was greater than 100 µM and the TGI [19] was 47.6 µM. For the same compound, the TGI [20] was 35.7 µM, the TGI [21] was 38.9 µM and the TGI [22] was 31.7 µM. The TGI [53] was 34.8 µM, the TGI [23] was 33.8 µM and the TGI [54] was 33.7 µM. It also gave a TGI [24] of 50.7 µM, a TGI [55] of 33.6 µM and a TGI [25] of 1.83 µM. For the same compound, the TGI [26] was 63.1 µM, the TGI [27] was 58.1 µM and the TGI [28] was 49.3 µM. For the same compound, the TGI [29] was 39.7 µM, the TGI [56] was 33.3 µM and the TGI [30] was 0.842 µM. For the same compound, the TGI [32] was 65.3 µM, the TGI [33] was 30.6 µM and the TGI [34] was 43.8 µM. For the same compound, the TGI [35] was 37.3 µM, the TGI [36] was 79.4 µM and the TGI [37] was 48.8 µM. For the same compound, the TGI [38] was 44.3 µM, the TGI [39] was greater than 100 µM and the TGI [40] was 81 µM. The TGI [41] was 41.6 µM, the TGI [42] was 57.5 µM and the TGI [43] was 30.4 µM. The TGI [44] was 61.5 µM, the TGI [46] was greater than 100 µM and the TGI [57] was 72.7 µM. For the same compound, the TGI [47] was 23.8 µM, the TGI [48] was 96.3 µM and the TGI [49] was 32.7 µM. The TGI [50] was 44.3 µM, the TGI [51] was 38.8 µM and the TGI [52] was 31.8 µM. The TGI [58] was greater than 100 µM.
